Publication PMC7241536, “Design, synthesis and in vitro antiproliferative activity of new thiazolidinedione-1,3,4-oxadiazole hybrids as thymidylate synthase inhibitors” (Journal of Enzyme Inhibition and Medicinal Chemistry, 2020)
Like-named read-outs stand apart in the source and are kept apart here.

Tests used:
[1] = system: MCF-7 (breast cancer); assay: MTT cytotoxicity assay, MCF-7; type: cell-based, human; conditions: for IC50: MTT, 72 h, breast cancer cell line MCF-7, read-out: IC50 against MCF-7; for folds activity of 5-FU against MCF-7: relative to 5-fluorouracil
Experimental: (§1) The methods are provided in Supplementary material.
(§2) The newly synthesised compounds 7–21 were tested for their cytotoxicity against human cancer cell line viz. breast and colorectal using MTT assay.
(§3) Two human cancer cell lines, MCF-7 and HCT-116 were cultured in Dulbecco’s Modified Eagles Medium (DMEM) high glucose medium which was supplemented with 10% fetal bovine serum (FBS), 10,000 units/mL penicillin/streptomycin (Pen/Strep) and 1% glutamine). The above cell lines were cultured in 75 cm2 flasks and maintained at 37 °C in an incubator humidified with 5% CO2. The cell culture was performed using aseptic techniques in a Class II […]
(§4) Breast MCF-7 and colorectal HCT-116 cancer cells were added at (1 × 10^5 cells/mL) into a 96 well plate with three replicates and incubated overnight for attachment at 37°C, in 5% CO2 humidified atmosphere. Drug concentrations at 6 serial dilutions (100, 50, 10, 1, 0.5 and 0.1 μM) were added in triplicates and incubated at 37°C, 5% CO2 for 72 h. Drugs were dissolved in 0.1 % DMSO as a vehicle. Untreated cells were used as control. 5-fluorouracil (5-FU) was used as a positive control. Thereafter, each well for each time point was removed and replaced with […] of full medium containing 10% of 3-(4,5- dimethylthiaxolyl-2)-2,5-diphenyltetrazoliumbromide (MTT) (10 mg/mL). Media was removed and 100µl of DMSO was added and cells were incubated for further 5 mins at 37 °C and 5% CO2. Plates were quantified using the SpectraMax M3 plate reader at 570 nm. The percentage inhibition was calculated as 100–[(Mean OD of treated cell × 100)/Mean OD of vehicle treated cells (DMSO)]. All the experiments were repeated at least three independent experiments. […]

[2] = system: HCT-116 (colorectal cancer); assay: MTT cytotoxicity assay, HCT-116; type: cell-based, human; conditions: for IC50: MTT, 72 h, colorectal cancer cell line HCT-116, read-out: IC50 against HCT-116; for folds cytotoxicity compared to 5-FU against HCT-116: relative to 5-fluorouracil
Experimental: as §1, §2, §3, §4

[3] = target: thymidylate synthase (TS) (Homo sapiens, UniProt P04818); assay: In vitro thymidylate synthase assay (spectrophotometric, 340 nm); type: biochemical
Chain of thymidylate synthase (TS) (P04818 whole entry): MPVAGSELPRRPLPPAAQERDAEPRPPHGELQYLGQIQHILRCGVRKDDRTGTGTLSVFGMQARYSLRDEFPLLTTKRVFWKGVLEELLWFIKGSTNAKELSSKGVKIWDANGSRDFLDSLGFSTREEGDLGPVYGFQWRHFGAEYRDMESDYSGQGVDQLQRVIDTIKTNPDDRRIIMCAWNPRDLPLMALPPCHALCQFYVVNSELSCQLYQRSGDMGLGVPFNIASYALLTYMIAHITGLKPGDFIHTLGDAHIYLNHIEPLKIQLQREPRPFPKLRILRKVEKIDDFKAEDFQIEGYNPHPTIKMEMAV
Experimental: TS activity was performed according to the method as described by Wahab and Friedkin[27] with a slight modification according to Santi.[28] (Refer to Supplementary material for the method.) […]
In vitro Thymidylate synthase assay
It involves a mixture containing 2-mercaptoethanol (0.1 M), (6R,S)-tetrahydrofolate (0.0003 M), formaldehyde (0.012 M), MgCl2 (0.02 M), dUMP (0.001 M), TrisHCl (0.04 M), and NaEDTA […]
(0.00075 M). This assay was done spectrophotometrically at 30° C and pH 7.4. The reaction was initiated by the addition of an amount of enzyme giving a change in absorbance at 340 nm of 0.016/min in the absence of inhibitor. The percent inhibition was determined at a minimum of four inhibitor concentrations within 20% of the 50% point. The standard deviations for […]

[4] = 30 °C, pH 7.4, read-out: TS inhibition IC50

| melting point [°C] | SMILES | IC50 ([1]; Homo sapiens, MCF7, 72 h) [µM] | IC50 ([2]; Homo sapiens, HCT-116, 72 h) [µM] | also measured |
| --- | --- | --- | --- | --- |
| 197 to 198 | COc1ccc(/C=C2\SC(=O)N(Cc3nnc(-c4ccc(C)cc4)o3)C2=O)cc1 [Compound 11, (Z)-5-(4-methoxybenzylidene)-3-((5-p-tolyl-1,3,4-oxadiazol-2-yl)methyl)thiazolidine-2,4-dione] | 58.4 | 68.1 | – |
| – | COc1ccc(/C=C2\SC(=O)N(Cc3nnc(-c4ccccc4O)o3)C2=O)cc1 [Compound 12, (Z)-5-(4-methoxybenzylidene)-3-((5-(2-hydroxyphenyl)-1,3,4-oxadiazol-2-yl)methyl)thiazol idine-2,4-dione] | 56.3 | 58.6 | – |
| 142 to 143 | COc1ccc(/C=C2\SC(=O)N(Cc3nnc(COc4cccc(Cl)c4)o3)C2=O)cc1 [Compound 17, (Z)-3-((5-((3-chlorophenoxy)methyl)-1,3,4-oxadiazol-2-yl)methyl)-5-(4-methoxybenzylidene)thiazolidine-2,4-dione] | 65.2 | 55.5 | – |
| – | Nc1nc2[nH]cc(CCc3ccc(C(=O)N[C@@H](CCC(=O)O)C(=O)O)cc3)c2c(=O)[nH]1 [PTX, Pemetrexed, reference compound] | – | – | IC50 [3]: 8.2 µM |
| 276 to 277 | COc1ccc(/C=C2\SC(=O)N(Cc3nnc(-c4ccccc4Cl)o3)C2=O)cc1 [Compound 9, (Z)-5-(4-methoxybenzylidene)-3-((5-(2-chlorophenyl)-1,3,4-oxadiazol-2-yl)methyl)thiazolidine-2,4-dione] | 7.47 | 12.8 | IC50 [1]: 7.74 µM; folds activity of 5-FU against MCF-7 [1]: 4.5 folds; folds cytotoxicity compared to 5-FU against HCT-116 [2]: 3.1 folds; IC50 [3, 4]: 1.67 µM |
| 210 to 211 | COc1ccc(/C=C2\SC(=O)N(Cc3nnc(COc4ccc5ccccc5c4)o3)C2=O)cc1 [Compound 20, (Z)-5-(4-methoxybenzylidene)-3-((5-((naphthalen-3-yloxy)methyl)-1,3,4-oxadiazol-2-yl)methyl) thiazolidine-2,4-dione] | > 100 | > 100 | – |
| – | COc1ccc(/C=C2\SC(=O)N(Cc3nnc(-c4ccc(Br)cc4)o3)C2=O)cc1 [Compound 10, (Z)-5-(4-methoxybenzylidene)-3-((5-(4-bromophenyl)-1,3,4-oxadiazol-2-yl)methyl)thiazolidine-2,4-dione] | 7.87 | 16.1 | folds activity of 5-FU against MCF-7 [1]: 4.4 folds; folds cytotoxicity compared to 5-FU against HCT-116 [2]: 2.5 folds; IC50 [3, 4]: 2.21 µM |
| – | COc1ccc(/C=C2\SC(=O)N(Cc3nnc(-c4cccc(Cl)c4)o3)C2=O)cc1 [Compound 8, (Z)-5-(4-methoxybenzylidene)-3-((5-(3-chlorophenyl)-1,3,4-oxadiazol-2-yl)methyl)thiazolidine-2,4-dione] | 56 | 56.8 | – |
| – | O=c1[nH]cc(F)c(=O)[nH]1 [Compound 5-FU, 5-fluorouracil, reference compound] | 34.8 | 40.5 | – |
| 220 to 221 | COc1ccc(/C=C2\SC(=O)N(Cc3nnc(COc4cccc5ccccc45)o3)C2=O)cc1 [Compound 19, (Z)-5-(4-methoxybenzylidene)-3-((5-((naphthalen-1-yloxy)methyl)-1,3,4-oxadiazol-2-yl)methyl) thiazolidine-2,4-dione] | 61.6 | 69.5 | – |
| 209 to 210 | COc1ccc(/C=C2\SC(=O)N(Cc3nnc(COc4cccc(Cl)c4Cl)o3)C2=O)cc1 [Compound 18, (Z)-3-((5-((2,3-dichlorophenoxy)methyl)-1,3,4-oxadiazol-2-yl)methyl)-5-(4-methoxybenzylidene)thiazolidine-2,4-dione] | > 100 | > 100 | – |
| 152 to 153 | COc1ccc(/C=C2\SC(=O)N(Cc3nnc(COc4ccccc4)o3)C2=O)cc1 [Compound 16, (Z)-5-(4-methoxybenzylidene)-3-((5-(phenoxymethyl)-1,3,4-oxadiazol-2-yl)methyl)thiazolidine-2,4-dione] | 58.4 | 67.1 | – |
| – | COc1ccc(/C=C2\SC(=O)N(Cc3nnc(-c4cccc([N+](=O)[O-])c4)o3)C2=O)cc1 [Compound 14, (Z)-5-(4-methoxybenzylidene)-3-((5-(3-nitrophenyl)-1,3,4-oxadiazol-2-yl)methyl)thiazolidine-2,4-dione] | 43.4 | 42.2 | IC50 [2]: 42.2 µM; IC50 [3, 4]: 9.4 µM |
| – | COc1ccc(/C=C2\SC(=O)N(Cc3nnc(-c4ccccc4)o3)C2=O)cc1 [Compound 7, (Z)-5-(4-methoxybenzylidene)-3-((5-phenyl-1,3,4-oxadiazol-2-yl)methyl)thiazolidine-2,4-dione] | 53.5 | 57.3 | – |
| 161 to 162 | COc1ccc(/C=C2\SC(=O)N(Cc3nnc(COc4cccc5cccnc45)o3)C2=O)cc1 [Compound 21, (Z)-5-(4-methoxybenzylidene)-3-((5-((quinolin-8-yloxy)methyl)-1,3,4-oxadiazol-2-yl)methyl) thiazolidine-2,4-dione] | 62 | 63.1 | – |
| – | COc1ccc(/C=C2\SC(=O)N(Cc3nnc(-c4ccccc4C)o3)C2=O)cc1 [Compound 13, (Z)-5-(4-methoxybenzylidene)-3-((5-o-tolyl-1,3,4-oxadiazol-2-yl)methyl)thiazolidine-2,4-dione] | 56.3 | 58.6 | – |
| – | COc1ccc(/C=C2\SC(=O)N(Cc3nnc(-c4cccc(C)c4)o3)C2=O)cc1 [Compound 15, (Z)-5-(4-methoxybenzylidene)-3-((5-m-tolyl-1,3,4-oxadiazol-2-yl)methyl)thiazolidine-2,4-dione] | 47.8 | 39.6 | IC50 [3, 4]: 7.9 µM |
